As usually defined, the CC50 is the concentration at which the toxic effect on the cells reaches its halfway point. The EC50 is the concentration giving half of the maximal effect.

The nature of series [1]: Selectivity index, ratio of CC50 for human HEp-2 cells to IC50 for Respiratory syncytial virus type A infected in human HEp-2 cells. Format: cell-based. The conditions noted are these: read-out: Ratio CC50/IC50.
Series [2] has as its system Human orthopneumovirus. The experiment in a line: Antiviral activity against Respiratory syncytial virus type B infected in human HEp-2 cells assessed as inhibition of viral replication preincubated with cells followed by viral infection for 1 hr followed by virus washout and further incubated with compound for 6 days by ELISA method. Format: functional, organism-based. On the technique in general: ELISA stands for enzyme-linked immunosorbent assay.

The test system of series [3] is Human orthopneumovirus. Put plainly: Antiviral activity against Respiratory syncytial virus type A infected in human HEp-2 cells assessed as inhibition of viral replication preincubated with cells followed by viral infection for 1 hr followed by virus washout and further incubated with compound for 6 days by ELISA method. It counts as functional, organism-based.
Series [4] is described as follows: Selectivity index, ratio of CC50 for human HEp-2 cells to IC50 for Respiratory syncytial virus type B infected in human HEp-2 cells. The conditions noted are these: read-out: Ratio CC50/IC50. It counts as cell-based.
Series [5] has as its system HEp-2. Put plainly: Cytotoxicity against human HEp-2 cells assessed as cell growth inhibition measured after 24 hrs by MTT assay. Format: functional. Background: Tetrazolium assays rely on reduction of a dye to a coloured formazan, in cell work by metabolically active cells.

Take `CC(C)c1ccc(Cn2cc(COc3ccc4c5c(c(=O)oc4c3)CCC5)nn2)cc1`: the figures for the selectivity ratio in series [1] and in series [4] were 1.8 and 1.5, respectively. Also, the IC50 in series [2] (read-out: IC50) was 25.6 µM; in series [3] (read-out: IC50), 21.7 µM. The CC50 in series [5] is 38.5 µM.
Regarding `CC(C)CCCC(C)CCn1cc(COc2ccc3c(-c4ccccc4)cc(=O)oc3c2)nn1` (configuration not stated), the selectivity ratio was 3.5 in series [1] and 2.8 in series [4]. For the same compound, the IC50 in series [2] (read-out: IC50) was 5.2 µM; in series [2] (read-out: pIC50 (converted)) it was 0.229 µM; in series [3] (read-out: IC50), 4.1 µM; in series [3] (read-out: pIC50 (converted)), 1.66 µM. In addition, the CC50 in series [5] is 14.6 µM.
Turning to `CC(C)c1ccc(Cn2cc(COc3ccc4c5c(c(=O)oc4c3)CCCC5)nn2)cc1`, the values for the selectivity ratio in series [1] and in series [4] were 1.7 and 1.6, respectively. Moreover, the IC50 amounted to 23.5 µM in series [2] (read-out: IC50) and 22.1 µM in series [3] (read-out: IC50). For the same compound, the CC50 in series [5] was found to be 37.7 µM.
As to `CC(C)c1ccc(Cn2cc(COc3ccc4c(-c5ccccc5)cc(=O)oc4c3)nn2)cc1`, the selectivity ratio was found to be 17 in series [1] and 12.9 in series [4]. Further, the IC50 in series [2] (read-out: IC50) amounted to 6.6 µM; in series [3] (read-out: IC50), 4.9 µM. Further, the CC50 in series [5] worked out at 85.7 µM.
On to `CC(C)=CCC/C(C)=C/CCOc1ccc2c3c(c(=O)oc2c1)CCC3`, for which the results for the selectivity ratio in series [1] and in series [4] were below 1 and 1.8, respectively. Moreover, the EC50 in series [2] turned out to be 15.2 µM. Besides, the IC50 in series [3] (read-out: IC50) is above 26 µM. Further, in series [5], the CC50 stood at 26.6 µM.
As for `CC(C)=CCCC(C)=CCn1cc(COc2ccc3c(-c4ccccc4)cc(=O)oc3c2)nn1`, the selectivity ratio in series [1] worked out at 37; in series [4], 1.1. For the same compound, the IC50 in series [2] (read-out: IC50) is 11.3 µM; in series [2] (read-out: pIC50 (converted)), 11.2 µM; in series [3] (read-out: IC50) it was 0.3 µM; in series [3] (read-out: pIC50 (converted)), 5.75 µM. Further, the CC50 in series [5] turned out to be 12.3 µM.
Take `NC(=O)c1ncn([C@@H]2O[C@H](CO)[C@@H](O)[C@H]2O)n1` [RIBAVIRIN]: the IC50 in series [2] (read-out: IC50) is 54.5 µM; in series [3] (read-out: IC50), 31.1 µM. The 50% cytotoxic concentration (CC50) in series [5] is above 4100 µM.
On to `CC(C)=CCC/C(C)=C/CCOc1ccc2c3c(c(=O)oc2c1)CCCC3`, for which the results for the selectivity ratio in series [1] and in series [4] were 90 and 85.2, respectively. Besides, the IC50 came out at 0.6 µM in series [2] (read-out: IC50) and 0.57 µM in series [3] (read-out: IC50). Moreover, the CC50 in series [5] is 51.1 µM.
`Cc1cc(=O)oc2cc(OCc3cn(CC4=CC[C@H]5C[C@@H]4C5(C)C)nn3)ccc12`: the selectivity ratio in series [1] was determined as 2.2; in series [4] it was 2. Besides, the figures for the IC50 in series [2] (read-out: IC50) and in series [3] (read-out: IC50) were 7 µM and 6.4 µM, respectively. For the same compound, the half-maximal cytotoxic concentration (CC50) in series [5] amounted to 14.3 µM.
The corresponding values for `CC1(C)[C@H]2CC=C(Cn3cc(COc4ccc5c6c(c(=O)oc5c4)CCC6)nn3)[C@@H]1C2` are 0.4, 1.1, 256 µM, 629 µM and 278 µM.
As to `CC(C)=CCC/C(C)=C\Cn1cc(COc2ccc3c(C)cc(=O)oc3c2)nn1`, the selectivity ratio was above 96 in series [1] and 13.4 in series [4]. For the same compound, the IC50 in series [2] (read-out: IC50) was 1.1 µM; in series [2] (read-out: pIC50 (converted)) it was 1.1 µM; in series [3] (read-out: IC50) it was below 0.2 µM; in series [3] (read-out: pIC50 (converted)), 0.151 µM. Further, the half-maximal cytotoxic concentration (CC50) in series [5] was found to be 14.7 µM.
Take `Cc1cc(=O)oc2cc(OCc3cn(CCC(C)CCCC(C)C)nn3)ccc12` (configuration not stated): the selectivity ratio in series [1] worked out at 3.8; in series [4] it was 4.1. Further, the IC50 was 3.9 µM in series [2] (read-out: IC50), 3.89 µM in series [2] (read-out: pIC50 (converted)), 4.3 µM in series [3] (read-out: IC50) and 4.27 µM in series [3] (read-out: pIC50 (converted)). The 50% cytotoxic concentration (CC50) in series [5] stood at 16.1 µM.
On to `CC1(C)[C@@H]2CC=C(COc3ccc4c5c(c(=O)oc4c3)CCCC5)[C@H]1C2`, for which the results for the selectivity ratio in series [1] and in series [4] were 77 and 78.2, respectively. Besides, the IC50 in series [2] (read-out: IC50) is 4.9 µM; in series [3] (read-out: IC50), 5.1 µM; in series [3] (read-out: pIC50 (converted)) it was 6.17 µM. The 50% cytotoxic concentration (CC50) in series [5] worked out at 380 µM.

These data come from ChEMBL document CHEMBL6182833, “Design, synthesis and antiviral evaluation of triazole-linked 7-hydroxycoumarin-monoterpene conjugates as inhibitors of RSV replication” (RSC Med Chem, 2025).
